Assays:
[1] = target: T1, Full-length human PRMT1 isoform 1 (Homo sapiens, UniProt Q99873); experiment: PRMT1 biochemical assay (3H-SAM Flashplate, peptide substrate)
T1 construct: GST-tagged PRMT1; made in house; host or cells: High Five insect cells (baculovirus, pFastBacI)
Excerpt: (§1) General Materials. S-adenosylmethionine (SAM), S-adenosylhomocysteine (SAH), bicine, Tween20, dimethylsulfoxide (DMSO), bovine skin gelatin (BSG), and Tris(2-carboxyethyl)phosphine hydrochloride solution (TCEP) were purchased from Sigma-Aldrich at the highest level of purity possible. ^3H-SAM was purchase from American Radiolabeled Chemicals with a specific activity of 80 Ci/mmol. 384-well streptavidin Flashplates were purchased from PerkinElmer.
Protein Expression. Recombinant baculovirus were generated according to Bac-to-Bac kit instructions (Life Technologies). […] Infections were carried out at 27° C. for 48 hours, harvested by centrifugation, and stored at −80° C. for purification.
Protein Purification. […] GST-tagged PRMT1 was eluted with 50 mM Tris, 2 mM glutathione, pH 7.8, dialysed in buffer A and concentrated to 1 mg/mL.
(§2) General Procedure for PRMT1 Enzyme Assays on Peptide Substrates. The assays were all performed in a buffer consisting of 20 mM Bicine (pH=7.6), 1 mM TCEP, 0.005% BSG, and 0.002% Tween 20, prepared on the day of use. […] DMSO (1 ul) was added to Columns 11, 12, 23, 24, rows A-H for the maximum signal control and 1 ul of SAH, a known product and inhibitor of PRMT1, was added to columns 11, 12, 23, 24, rows I-P for the minimum signal control. A cocktail (40 ul) containing the PRMT1 enzyme was added by Multidrop Combi (Thermo-Fisher). The compounds were allowed to incubate with PRMT1 for 30 min at room temperature, then a cocktail (10 ul) containing SAM and peptide was added to initiate the reaction (final volume=51 ul). […] The assays were stopped by the addition of non-radiolabeled SAM (10 ul) to a final concentration of 300 uM, which dilutes the ^3H-SAM to a level where its incorporation into the peptide substrate is no longer detectable. 50 ul of the reaction in the 384-well polypropylene plate was then transferred to a 384-well Flashplate and the biotinylated peptides were allowed to bind to the streptavidin surface for at least 1 hour before being washed once with 0.1% Tween20 in a Biotek ELx405 plate washer. The plates were then read in a PerkinElmer TopCount plate reader to measure the quantity of ^3H-labeled peptide bound to the Flashplate surface, measured as disintegrations per minute (dpm) or alternatively, referred to as counts per minute (cpm).
(§3) Where dpm=disintegrations per minute, cmpd=signal in assay well, and min and max are the respective minimum and maximum signal controls.
(§4) Where top and bottom are the normally allowed to float, but may be fixed at 100 or 0 respectively in a 3-parameter fit. The Hill Coefficient normally allowed to float but may also be fixed at 1 in a 3-parameter fit. Y is the % inhibition and X is the compound concentration.

[2] = system: mono-methyl arginine in RKO cells; experiment: RKO methylation assay, In Cell Western for mono-methyl arginine and DNA content; assay type: cell-based; conditions: Homo sapiens; In Cell Western, RKO cells, 72 hours, percent activation of mono-methyl arginine signal; read-out: EC30
Excerpt: RKO adherent cells were purchased from ATCC (American Type Culture Collection), Manassas, Va., USA. DMEM/Glutamax medium, penicillin-streptomycin, heat inactivated fetal bovine serum, 0.05% trypsin and D-PBS were purchased from Life Technologies, Grand Island, N.Y., USA. Odyssey blocking buffer, 800CW goat anti-rabbit IgG (H+L) antibody, and Licor Odyssey infrared scanner were purchased from Licor Biosciences, Lincoln, Nebr., USA. Mono-methyl arginine antibody was purchased from Cell Signaling Technology, Danvers, Mass., USA. Methanol was purchased from VWR, Franklin, Mass., USA. 10% Tween 20 was purchased from KPL, Inc., Gaithersburg, Md., USA. […] was purchased from Biostatus Limited, Leicestershire, UK.
RKO adherent cells were maintained in growth medium (DMEM/Glutamax medium supplemented with 10% v/v heat inactivated fetal bovine serum and 100 units/mL penicillin-streptomycin) and cultured at 37° C. under 5% CO2
Cell Treatment, in Cell Western (ICW) for Detection of Mono-Methyl Arginine and DNA Content. […] Compound (100 nL) from a 96-well source plate was added directly to 384 well cell plate. Plates were incubated at 37° C., 5% CO2 for 72 hours. After three days of incubation, plates were brought to room temperature outside of the incubator for ten minutes and blotted on paper towels to remove cell media. 50 μL of ice cold 100% methanol was added directly to each well and incubated for 30 min at room temperature. After 30 min, plates were transferred to a Biotek EL406 plate washer and washed 2 times with 100 μL per well of wash buffer (1×PBS). Next 60 μL per well of Odyssey blocking buffer (Odyssey Buffer with 0.1% Tween 20 (v/v)) were added to each plate and incubated 1 hour at room temperature. Blocking buffer was removed and 20 μL per well of primary antibody was added (mono-methyl arginine diluted 1:200 in Odyssey buffer with 0.1% Tween 20 (v/v)) and plates were incubated overnight (16 hours) at 4° C. Plates were washed 5 times with 100 μL per well of wash buffer. […] The plates were washed 5 times with 100 μL per well wash buffer then 2 times with 100 μL per well of water. Plates were allowed to dry at room temperature then imaged on the Licor Odyssey machine which measures integrated intensity at 700 nm and 800 nm wavelengths. Both 700 and 800 channels were scanned.
Calculations: First, the ratio for each well was determined by:
Each plate included fourteen control wells of DMSO only treatment (minimum activation) as well as fourteen control wells for maximum activation treated with 20 μM of a reference compound. The average of the ratio values for each control type was calculated and used to determine the percent activation for each test well in the plate. Reference compound was serially diluted three-fold in DMSO for a total of nine test concentrations, beginning at 20 μM. Percent activation was determined and EC30 curves were generated using triplicate wells per concentration of compound.

[3] = target: T2, Full-length human PRMT6 (Homo sapiens, UniProt Q96LA8); experiment: PRMT6 biochemical assay (3H-SAM Flashplate, peptide substrate)
T2 construct: Flag-PRMT6-His was eluted with 200 ug/ml FLAG peptide in the same buffer; made in house; host or cells: HEK 293F cells (BacMam virus, pFastBacMam)
Excerpt: as §1, with “(BSG), sodium butyrate” for “(BSG),”
Substrates. Peptide representative of human histone H4 residues 36-50 was synthesized with an N-terminal linker-affinity tag motif and a C-terminal amide cap by 21st Century Biochemicals.
The amplified gene was subcloned into pFastBacMam (Viva Biotech).
Protein Expression. Recombinant baculovirus were generated according to Bac-to-Bac kit instructions (Life Technologies). […] Infections were carried out at 37° C. for 48 hours, harvested by centrifugation, and stored at −80° C. for purification.
Protein Purification. […] Column was washed with 20 mM imidazole in the same buffer and Flag-PRMT6-His was eluted with 150 mM imidazole. Pooled fractions were dialysed against buffer Ni-A and further purified by anti-flag M2 affinity chromatography. Flag-PRMT6-His was eluted with 200 ug/ml FLAG peptide in the same buffer. Pooled fractions were dialysed in 20 mM Tris, 150 mM NaCl, 10% glycerol and 5 mM β-mercaptoethanol, pH 7.8.
as §2, with “PRMT6” for “PRMT1”, “PRMT6,” for “PRMT1,”, “400” for “300”
as §3, §4

T1 sequence (Q99873 with tags, fused parts or gaps): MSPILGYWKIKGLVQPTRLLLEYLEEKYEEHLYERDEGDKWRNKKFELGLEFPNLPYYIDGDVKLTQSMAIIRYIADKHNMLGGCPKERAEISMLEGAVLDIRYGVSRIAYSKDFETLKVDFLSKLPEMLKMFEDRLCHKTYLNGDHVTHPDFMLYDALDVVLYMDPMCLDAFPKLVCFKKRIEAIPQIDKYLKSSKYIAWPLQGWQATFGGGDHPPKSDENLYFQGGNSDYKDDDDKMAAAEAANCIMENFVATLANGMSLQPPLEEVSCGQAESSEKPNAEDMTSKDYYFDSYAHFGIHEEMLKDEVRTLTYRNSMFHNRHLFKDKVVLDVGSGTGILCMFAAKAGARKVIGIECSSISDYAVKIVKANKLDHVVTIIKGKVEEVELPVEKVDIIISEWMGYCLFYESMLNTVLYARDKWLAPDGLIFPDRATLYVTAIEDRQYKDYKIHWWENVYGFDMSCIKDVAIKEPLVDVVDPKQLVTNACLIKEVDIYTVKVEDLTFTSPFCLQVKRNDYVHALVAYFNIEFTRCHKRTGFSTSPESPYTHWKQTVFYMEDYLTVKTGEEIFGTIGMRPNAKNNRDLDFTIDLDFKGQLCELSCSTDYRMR
T2 sequence (Q96LA8 with tags, fused parts or gaps): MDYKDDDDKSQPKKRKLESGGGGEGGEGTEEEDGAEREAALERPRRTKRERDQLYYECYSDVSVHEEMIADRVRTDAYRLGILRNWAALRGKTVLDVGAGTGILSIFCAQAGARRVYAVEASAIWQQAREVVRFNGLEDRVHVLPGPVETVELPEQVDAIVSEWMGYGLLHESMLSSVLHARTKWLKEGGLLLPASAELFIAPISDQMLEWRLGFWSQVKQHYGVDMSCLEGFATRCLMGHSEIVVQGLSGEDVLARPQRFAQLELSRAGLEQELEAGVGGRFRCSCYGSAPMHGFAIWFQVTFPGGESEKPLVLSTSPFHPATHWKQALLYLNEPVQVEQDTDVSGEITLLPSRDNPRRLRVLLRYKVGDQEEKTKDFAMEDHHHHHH

Structure (SMILES) | IC50 [1] [nM] | EC30 [2] [µM] | IC50 [3] [nM]
CNCCN(C)Cc1n[nH]cc1-c1ccc(Oc2cccc(OC)c2)cc1 [Compound 239] | < 100 | < 3 | < 100
CC(C)Cc1cccc(-c2n[nH]cc2CN(C)CCN)c1 [Compound 235] | < 100 | < 3 | 101 to 1000
CNCCN(C)Cc1c[nH]nc1-c1cc(Cl)c(OCC2CC2)c(Cl)c1 [Compound 282] | < 100 | < 3 | < 100
CNCCN(C)Cc1c[nH]nc1-c1cc(CC(C)C)cc(CC(C)C)c1 [Compound 281] | < 100 | 3.01 to 12 | 101 to 1000
CC(C)Cc1cc(-c2n[nH]cc2CN(C)CCN)ccc1F [Compound 280] | < 100 | < 3 | < 100
CNCCN(C)Cc1c(-c2ccc(OCCCOC)cc2)cnn1C [Compound 276] | > 10000 | > 12 | 1010 to 3000
COCCCOc1ccc(-c2n[nH]cc2CN(C)CCN)cc1 [Compound 179] | < 100 | < 3 | < 100
CNCCN(C)Cc1c[nH]nc1-c1ccc(Oc2cccc(C(C)C)c2)cc1 [Compound 262] | < 100 | < 3 | < 100
CNCCN(C)Cc1nn(C)cc1-c1ccc(OCCCOC)cc1 [Compound 266] | 101 to 1000 | > 12 | < 100
CNCCN(C)Cc1n[nH]cc1-c1ccc(Oc2ccccc2)c(C#N)c1 [Compound 234] | < 100 | < 3 | < 100
CNCCN(C)Cc1n[nH]cc1-c1cc(OC(C)C)cc(C(C)C)c1 [Compound 272] | 101 to 1000 | > 12 | 1010 to 3000
CN(CCN)Cc1c[nH]nc1-c1ccc(OC2CCOCC2)cc1 [Compound 178] | < 100 | < 3 | < 100
CNCCN(C)Cc1n[nH]cc1-c1ccc(Oc2ccccc2F)cc1 [Compound 279, N^1-((4-(4-(2-fluorophenoxy)phenyl)-1H-pyrazol-3-yl)methyl)-N^1,N^2-dimethylethane-1,2-diamine] | < 100 | < 3 | < 100
CN(CCN)Cc1c[nH]nc1-c1ccc(Oc2ccccc2F)cc1 [Compound 259] | < 100 | < 3 | < 100
CNCCN(C)Cc1c[nH]nc1-c1ccc(OC2CCOCC2)cc1 [Compound 175] | < 100 | < 3 | < 100
CNCCN(C)Cc1c[nH]nc1-c1ccc(OC(C)C)c(F)c1 [Compound 181] | < 100 | > 12 | < 100
CNCCN(C)Cc1c[nH]nc1-c1cc(OC(C)C)cc(C(C)C)c1 [Compound 260] | < 100 | 3.01 to 12 | 101 to 1000
CNCCN(C)Cc1n[nH]cc1-c1ccc(Oc2ccccc2)c(C(=O)N(C)C)c1 [Compound 241] | < 100 | 3.01 to 12 | < 100
CNCCN(C)Cc1n[nH]cc1-c1ccc(Oc2cccc(C#N)c2)cc1 [Compound 267] | < 100 | < 3 | < 100
CNCCN(C)Cc1c[nH]nc1-c1ccc(Oc2ccccc2F)cc1 [Compound 237] | < 100 | < 3 | < 100
CNCCN(C)Cc1cn(Cc2ccncc2)nc1-c1ccc(OC(C)C)cc1 [Compound 245] | < 100 | < 3 | 101 to 1000
CC(C)Oc1ccc(-c2c(CN(C)CCN)cnn2C)cc1 [Compound 177] | < 100 | < 3 | < 100
CNCCN(C)Cc1c[nH]nc1-c1ccc(OCCCO)cc1 [Compound 236] | < 100 | < 3 | < 100
CNCCN(C)Cc1c[nH]nc1-c1ccc(Oc2ccccc2)c(C(=O)NC)c1 [Compound 232] | < 100 | 3.01 to 12 | < 100
CNCCN(C)Cc1n[nH]c(C)c1-c1ccc(OC(C)C)cc1 [Compound 275] | < 100 | < 3 | < 100
CNCCN(C)Cc1n[nH]cc1-c1ccc(Oc2cccc(F)c2)cc1 [Compound 270] | < 100 | < 3 | < 100

Source: patent publication US9346761B2, “Arginine methyltransferase inhibitors and uses thereof” (Epizyme, Inc., priority 2013, dated 2016)
